Where a name gives a salt, the structure may show the parent alone.
How the values were obtained:
[1] = target: mouse PKA catalytic subunits (Mus musculus, UniProt P05132); assay: PKA inhibition, ADP-Glo Kinase Assay
bovine GRK2 (S670A) = target: T1, bovine GRK2 (S670A) (Bos taurus, UniProt P21146, S670A); assay: GRK2 kinase inhibition
T1 sequence (P21146 1-689 S670A): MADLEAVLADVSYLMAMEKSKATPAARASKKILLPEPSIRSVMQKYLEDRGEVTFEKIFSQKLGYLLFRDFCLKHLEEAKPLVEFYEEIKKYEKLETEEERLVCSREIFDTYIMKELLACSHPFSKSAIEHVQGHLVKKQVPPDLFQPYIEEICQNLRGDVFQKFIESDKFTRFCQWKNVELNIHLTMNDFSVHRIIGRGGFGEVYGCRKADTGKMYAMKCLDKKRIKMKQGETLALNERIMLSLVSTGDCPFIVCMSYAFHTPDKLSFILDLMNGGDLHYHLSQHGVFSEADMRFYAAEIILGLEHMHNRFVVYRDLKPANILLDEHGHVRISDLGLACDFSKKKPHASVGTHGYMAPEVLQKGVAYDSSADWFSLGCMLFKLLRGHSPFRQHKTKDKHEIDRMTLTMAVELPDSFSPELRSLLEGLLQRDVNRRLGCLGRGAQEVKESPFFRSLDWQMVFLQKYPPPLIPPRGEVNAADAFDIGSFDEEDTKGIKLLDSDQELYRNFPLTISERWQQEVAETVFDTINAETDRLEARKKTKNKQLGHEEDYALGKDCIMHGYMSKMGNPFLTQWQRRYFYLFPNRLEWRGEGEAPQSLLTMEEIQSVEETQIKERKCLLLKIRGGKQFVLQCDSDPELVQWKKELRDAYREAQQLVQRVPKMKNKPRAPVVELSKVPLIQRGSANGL

bovine GRK5 = bovine GRK5 (Bos taurus, UniProt P43249); assay: GRK5 kinase inhibition
[2] = Metabolic stability in mouse liver microsomes; assay type: in vitro ADME; conditions: polar carboxamides on the paroxetine template
mouse cardiomyocytes = assay type: cell-based
[3] = Abbreviated pharmacokinetic study in mice after IP administration
[4] = female, CD-1, mouse, plasma, ip, 10 mg/kg

Chain of bovine GRK5 (P43249 whole entry): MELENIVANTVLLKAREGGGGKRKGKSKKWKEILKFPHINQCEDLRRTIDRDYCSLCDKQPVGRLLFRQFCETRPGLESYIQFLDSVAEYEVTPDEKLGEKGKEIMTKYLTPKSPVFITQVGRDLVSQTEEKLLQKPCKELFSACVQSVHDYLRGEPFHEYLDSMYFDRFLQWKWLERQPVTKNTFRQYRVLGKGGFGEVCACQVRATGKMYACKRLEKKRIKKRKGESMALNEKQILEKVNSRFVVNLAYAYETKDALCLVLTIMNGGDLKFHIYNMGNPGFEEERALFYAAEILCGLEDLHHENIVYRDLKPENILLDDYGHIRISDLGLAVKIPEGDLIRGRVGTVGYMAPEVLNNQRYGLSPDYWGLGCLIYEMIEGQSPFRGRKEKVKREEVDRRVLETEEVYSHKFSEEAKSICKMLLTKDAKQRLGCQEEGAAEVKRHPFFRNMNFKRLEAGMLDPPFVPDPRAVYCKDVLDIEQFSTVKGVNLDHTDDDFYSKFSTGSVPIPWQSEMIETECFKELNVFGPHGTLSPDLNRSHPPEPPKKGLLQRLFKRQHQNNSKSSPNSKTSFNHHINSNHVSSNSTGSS

| SMILES | IC50 [1] | also measured |
| --- | --- | --- |
| CNC(=O)c1cc([C@@H]2CCNC[C@H]2COc2ccc3c(c2)OCO3)ccc1F [14aa, 5-((3S,4R)-3-((benzo[d][1,3]dioxol-5-yloxy)methyl)piperidin-4-yl)-2-fluoro-N-methylbenzamide] | > 100 µM | – |
| O=C(NCc1ccccc1C(F)(F)F)c1cc([C@@H]2CCNC[C@H]2COc2ccc3c(c2)OCO3)ccc1F [14af, 5-((3S,4R)-3-((benzo[d][1,3]dioxol-5-yloxy)methyl)piperidin-4-yl)-2-fluoro-N-(2-(trifluoromethyl)benzyl)benzamide] | > 100 µM | – |
| O=C(NCCc1c[nH]cn1)c1cc([C@@H]2CCNC[C@H]2COc2ccc3c(c2)OCO3)ccc1F [14ar, N-(2-(1H-imidazol-4-yl)ethyl)-5-((3S,4R)-3-((benzo[d][1,3]dioxol-5-yloxy)methyl)piperidin-4-yl)-2-fluorobenzamide] | > 100 µM | – |
| Cc1cccc(C)c1CNC(=O)c1cc([C@@H]2CCNC[C@H]2COc2ccc3c(c2)OCO3)ccc1F [14ag, 5-((3S,4R)-3-((benzo[d][1,3]dioxol-5-yloxy)methyl)piperidin-4-yl)-N-(2,6-dimethylbenzyl)-2-fluorobenzamide hydrochloride] | > 100 µM | – |
| O=C(NCCc1cc[nH]n1)c1cc([C@@H]2CCNC[C@H]2COc2ccc3c(c2)OCO3)ccc1F [14at, N-(2-(1H-pyrazol-3-yl)ethyl)-5-((3S,4R)-3-((benzo[d][1,3]dioxol-5-yloxy)methyl)piperidin-4-yl)-2-fluorobenzamide] | > 100 µM | decrease in GRK2 potency relative to 14as (bovine GRK2 (S670A)): 26 fold |
| Cn1ccc(CNC(=O)c2cc([C@@H]3CCNC[C@H]3COc3ccc4c(c3)OCO4)ccc2F)n1 [14av, 5-((3S,4R)-3-((benzo[d][1,3]dioxol-5-yloxy)methyl)piperidin-4-yl)-2-fluoro-N-((1-methyl-1H-pyrazol-3-yl)methyl)benzamide] | > 100 µM | decrease in GRK2 potency relative to 14as (bovine GRK2 (S670A)): 40 fold |
| Cn1nccc1CNC(=O)c1cc([C@@H]2CCNC[C@H]2COc2ccc3c(c2)OCO3)ccc1F [14aw, 5-((3S,4R)-3-((benzo[d][1,3]dioxol-5-yloxy)methyl)piperidin-4-yl)-2-fluoro-N-((1-methyl-1H-pyrazol-5-yl)methyl)benzamide] | > 100 µM | decrease in GRK2 potency relative to 14as (bovine GRK2 (S670A)): 70 fold |
| O=C(NCCc1ccccn1)c1cc([C@@H]2CCNC[C@H]2COc2ccc3c(c2)OCO3)ccc1F [14an, 5-((3S,4R)-3-((benzo[d][1,3]dioxol-5-yloxy)methyl)piperidin-4-yl)-2-fluoro-N-(2-(pyridin-2-yl)ethyl)benzamide] | > 100 µM | – |
| O=C(NCc1ccncc1)c1cc([C@@H]2CCNC[C@H]2COc2ccc3c(c2)OCO3)ccc1F [14am, 5-((3S,4R)-3-((benzo[d][1,3]dioxol-5-yloxy)methyl)piperidin-4-yl)-2-fluoro-N-(pyridin-4-ylmethyl)benzamide] | > 100 µM | – |
| O=C(NCCc1ccncc1)c1cc([C@@H]2CCNC[C@H]2COc2ccc3c(c2)OCO3)ccc1F [14ap, 5-((3S,4R)-3-((benzo[d][1,3]dioxol-5-yloxy)methyl)piperidin-4-yl)-2-fluoro-N-(2-(pyridin-4-yl)ethyl)benzamide] | > 100 µM | – |
| COc1ccccc1CNC(=O)c1cc([C@@H]2CCNC[C@H]2COc2ccc3c(c2)OCO3)ccc1F [14aj, 5-((3S,4R)-3-((benzo[d][1,3]dioxol-5-yloxy)methyl)piperidin-4-yl)-2-fluoro-N-(2-methoxybenzyl)benzamide hydrochloride] | > 100 µM | – |
| O=C(Cc1cc([C@@H]2CCNC[C@H]2COc2ccc3c(c2)OCO3)ccc1F)NCCc1cn[nH]c1 [14bd, N-(2-(1H-pyrazol-4-yl)ethyl)-2-(5-((3S,4R)-3-((benzo[d][1,3]dioxol-5-yloxy)methyl)piperidin-4-yl)-2-fluorophenyl)acetamide] | > 100 µM | increase in GRK2 potency relative to paroxetine (bovine GRK2 (S670A)): 2 fold |
| Fc1ccc([C@@H]2CCNC[C@H]2COc2ccc3c(c2)OCO3)cc1 [Paroxetine, paroxetine, reference compound] | > 100 µM | – |
| O=C(NCCc1cn[nH]c1)c1cc([C@@H]2CCNC[C@H]2COc2ccc3c(c2)OCO3)ccc1F [14ay, N-(2-(1H-pyrazol-4-yl)ethyl)-5-((3S,4R)-3-((benzo[d][1,3]dioxol-5-yloxy)methyl)piperidin-4-yl)-2-fluorobenzamide hydrochloride] | > 100 µM | – |
| O=C(NCc1ncc[nH]1)c1cc([C@@H]2CCNC[C@H]2COc2ccc3c(c2)OCO3)ccc1F [14aq, N-((1H-imidazol-2-yl)methyl)-5-((3S,4R)-3-((benzo[d][1,3]dioxol-5-yloxy)methyl)piperidin-4-yl)-2-fluorobenzamide] | > 100 µM | – |
| O=C(NCCc1cccnc1)c1cc([C@@H]2CCNC[C@H]2COc2ccc3c(c2)OCO3)ccc1F [14ao, 5-((3S,4R)-3-((benzo[d][1,3]dioxol-5-yloxy)methyl)piperidin-4-yl)-2-fluoro-N-(2-(pyridin-3-yl)ethyl)benzamide] | > 100 µM | – |
| O=C(Cc1cc([C@@H]2CCNC[C@H]2COc2ccc3c(c2)OCO3)ccc1F)NCCc1ccccn1 [14bc, 2-(5-((3S,4R)-3-((benzo[d][1,3]dioxol-5-yloxy)methyl)piperidin-4-yl)-2-fluorophenyl)-N-(2-(pyridin-2-yl)ethyl)acetamide hydrochloride] | > 100 µM | – |
| O=C(NCc1ccccc1)c1cc([C@@H]2CCNC[C@H]2COc2ccc3c(c2)OCO3)ccc1F [14ab, 5-((3S,4R)-3-((benzo[d][1,3]dioxol-5-yloxy)methyl)piperidin-4-yl)-N-benzyl-2-fluorobenzamide] | > 100 µM | – |
| O=C(NCCc1ccccc1)c1cc([C@@H]2CCNC[C@H]2COc2ccc3c(c2)OCO3)ccc1F [14ac, 5-((3S,4R)-3-((benzo[d][1,3]dioxol-5-yloxy)methyl)piperidin-4-yl)-2-fluoro-N-phenethylbenzamide] | > 100 µM | – |
| O=C(NCc1c(F)cccc1F)c1cc([C@@H]2CCNC[C@H]2COc2ccc3c(c2)OCO3)ccc1F [14ad, 5-((3S,4R)-3-((benzo[d][1,3]dioxol-5-yloxy)methyl)piperidin-4-yl)-N-(2,6-difluorobenzyl)-2-fluorobenzamide hydrochloride] | > 100 µM | – |
| O=C(NCc1c(Cl)cccc1Cl)c1cc([C@@H]2CCNC[C@H]2COc2ccc3c(c2)OCO3)ccc1F [14ah, 5-((3S,4R)-3-((benzo[d][1,3]dioxol-5-yloxy)methyl)piperidin-4-yl)-N-(2,6-dichlorobenzyl)-2-fluorobenzamide] | > 100 µM | – |
| Cc1cc(CNC(=O)c2cc([C@@H]3CCNC[C@H]3COc3ccc4c(c3)OCO4)ccc2F)n[nH]1 [14au, 5-((3S,4R)-3-((benzo[d][1,3]dioxol-5-yloxy)methyl)piperidin-4-yl)-2-fluoro-N-((5-methyl-1H-pyrazol-3-yl)methyl)benzamide] | > 100 µM | selectivity for GRK2 over GRK5 (bovine GRK5): > 100 fold |
| COc1cccc(OC)c1CNC(=O)c1cc([C@@H]2CCNC[C@H]2COc2ccc3c(c2)OCO3)ccc1F [14ai, 5-((3S,4R)-3-((benzo[d][1,3]dioxol-5-yloxy)methyl)piperidin-4-yl)-N-(2,6-dimethoxybenzyl)-2-fluorobenzamide hydrochloride] | > 100 µM | – |
| O=C(NCc1ccn[nH]1)c1cc([C@@H]2CCNC[C@H]2COc2ccc3c(c2)OCO3)ccc1F [14as, N-((1H-pyrazol-5-yl)methyl)-5-((3S,4R)-3-((benzo[d][1,3]dioxol-5-yloxy)methyl)piperidin-4-yl)-2-fluorobenzamide] | > 100 µM | metabolic stability in MLM, in words [2]: substantial metabolic instability; improvement in contractility efficacy over compound 4 (mouse cardiomyocytes): 5 fold; concentration giving improved contractility (mouse cardiomyocytes; isoproterenol-stimulated): 100 nM; concentration at 30 min [3, 4]: 2710 nM; concentration at 2 h [3, 4]: 1440 nM; concentration at 4 h [3, 4]: 270 nM; concentration at 7 h [3, 4]: 43 nM; time with plasma concentration higher than GRK2 IC50 ([…] nM) ([3]; mice, single IP administration 10 mg/kg): over seven |
| O=C(NCCc1c(F)cccc1F)c1cc([C@@H]2CCNC[C@H]2COc2ccc3c(c2)OCO3)ccc1F [14ae, 5-((3S,4R)-3-((benzo[d][1,3]dioxol-5-yloxy)methyl)piperidin-4-yl)-N-(2,6-difluorophenethyl)-2-fluorobenzamide] | > 100 µM | – |
| O=C(NCc1cn[nH]c1)c1cc([C@@H]2CCNC[C@H]2COc2ccc3c(c2)OCO3)ccc1F [14ax, N-((1H-pyrazol-4-yl)methyl)-5-((3S,4R)-3-((benzo[d][1,3]dioxol-5-yloxy)methyl)piperidin-4-yl)-2-fluorobenzamide] | > 100 µM | decrease in GRK2 potency relative to 14as (bovine GRK2 (S670A)): 10 fold |
| O=C(NCc1cccnc1)c1cc([C@@H]2CCNC[C@H]2COc2ccc3c(c2)OCO3)ccc1F [14al, 5-((3S,4R)-3-((benzo[d][1,3]dioxol-5-yloxy)methyl)piperidin-4-yl)-2-fluoro-N-(pyridin-3-ylmethyl)benzamide] | > 100 µM | – |

— paper PMC5641445 (Journal of medicinal chemistry, 2017)
